Measured values from PMC5986797, “Laminin heparin-binding peptides bind to several growth factors and enhance diabetic wound healing” (Nature Communications, 2018).
Entries after “also recorded” stand apart in the source; their conditions may differ.

Columns and labels:
[1] = ELISA: biotinylated heparin binding to laminin peptides; set-up: key to Interaction with Heparin: ++ indicates high affinities; + indicates medium/low affinities; details: for binding to heparin (ELISA): 10 µg/mL laminin peptide coated (legend; method 1 μg/mL), 10 µg/mL biotinylated heparin, vs BSA-coated wells, n = 4; for Interaction with Heparin: summary table
Experimental: (§1) ELISA tests were performed as described above. In brief, […] recombinant protein, laminin alpha 4 LG domain recombinant protein (R&D Systems), laminin alpha 5 LG domain recombinant protein (LD BioPharma), or laminin peptide (sequences are described in Supplementary Table 1, chemically synthesized by Genscript) in PBS for 2 h at 37 °C. A concentration of 1 μg/mL of BSA served as non-binding protein control. After blocking with 2% BSA PBS-0.05% Tween 20 (PBS-T) solution, 1 μg/mL of the recombinant human proteins (VEGF-A121, VEGF-A165, PlGF-1, PlGF-2, PDGF-BB, or FGF-2) or 10 μg/mL of biotinylated heparin (Sigma-Aldrich) were added. Bound GF was detected with biotinylated antibodies for human VEGF-A, PlGF, PDGF-BB (R&D Systems, Catalog No. DY220, 1:180 dilution), or FGF-2 (R&D Systems). The antibodies were detected by streptavidin-HRP (R&D Systems).

[2] = system: recombinant human syndecan-1, syndecan-2, syndecan-3, and syndecan-4; experiment: ELISA: syndecan binding to laminin peptides; set-up: key to Interaction with Syndecan: ++ indicates high affinities; + indicates medium/low affinities; details: for binding to syndecans 1–4 (ELISA): 10 µg/mL laminin peptide coated (legend; method 1 μg/mL), 1 μg/mL histidine-tagged syndecan, vs BSA-coated wells, n = 8; for Interaction with Syndecan: summary table
Experimental: ELISA tests were performed as described above. […] A concentration of 1 μg/mL of BSA served as non-binding protein control. After blocking with 2% BSA PBS-T solution, 1 μg/mL of the recombinant human syndecan-1, syndecan-2, syndecan-3, and syndecan-4 (all syndecan proteins are histidine-tagged; SinoBiological) were added. Bound GF was detected with anti-histidine tag antibody (BioLegend, Catalog No. 562504, 1:1000 dilution).

[3] = system: GF; experiment: ELISA: GF binding to laminin peptides, stated for the tested GFs together; set-up: species or system human; details: 10 µg/mL laminin peptide coated, 1 μg/mL GF, n = 4
[4] = system: human lung fibroblasts; experiment: Cell adhesion assay, fibroblasts; assay type: cell-based; set-up: key to Cell adhesion Fibroblast: ++ indicates high affinities; + indicates medium/low affinities; details: for Cell adhesion Fibroblast: summary table; for fibroblast attachment on peptide-coated surfaces: without EDTA, 1 μg/mL peptide coated, 3000 cells/well, 30 min, 37 °C, FGM-2, 1% FBS, CyQUANT, vs BSA, n = 10
Experimental: (§2) A total of 96-well plates (non-tissue culture treated, Greiner Bio-One) were pre-coated with 1 μg/mL with laminin HBD peptides in PBS for 2 h at 37 °C, followed by blocking with 2% BSA PBS for 1 h at RT. Cell adhesion assays were performed using human lung fibroblasts (Lonza) in FGM-2 medium (Lonza) or human umbilical vein endothelial cells (HUVEC; Lonza) in EGM-2 medium (Lonza) supplemented with 1% fetal bovine serum (FBS) and 100 µg/mL VEGF-A165, with or without 5 mM EDTA (Sigma-Aldrich). Cells were plated at 3000 cells/well on laminin peptide pre-coated plates and incubated for 30 min at 37 °C, 5% CO2. Then, the medium was removed, and wells were quickly washed three times with PBS. Cell numbers were quantified using a CyQUANT assay, according to the manufacturer’s instructions (Invitrogen). All cell lines were checked for mycoplasma contamination and used in passages from 5 to 8.

[5] = system: GF; experiment: ELISA: GF binding to laminin peptides, stated for the tested GFs together; set-up: species or system human; key: ++ indicates high affinities; + indicates medium/low affinities; details: summary table
Experimental: (§3) ELISA tests were performed as described above. In brief, ELISA plates were coated with 1 μg/mL of laminin alpha 3 LG domain recombinant protein, laminin alpha 4 LG domain recombinant protein (R&D Systems), laminin alpha 5 LG domain recombinant protein (LD BioPharma), or laminin peptide (sequences are described in Supplementary Table 1, chemically synthesized by Genscript) in PBS for 2 h at 37 °C. A concentration of 1 μg/mL of BSA served as non-binding protein control. After blocking with 2% BSA PBS-0.05% Tween 20 (PBS-T) solution, 1 μg/mL of the recombinant human proteins (VEGF-A121, VEGF-A165, PlGF-1, PlGF-2, PDGF-BB, or FGF-2) or 10 μg/mL of biotinylated heparin (Sigma-Aldrich) were added. Bound GF was detected with biotinylated antibodies for human VEGF-A, PlGF, PDGF-BB (R&D Systems, Catalog No. DY220, 1:180 dilution), or FGF-2 (R&D Systems). The antibodies were detected by streptavidin-HRP (R&D Systems).

[6] = system: VEGF-A165; experiment: ELISA: VEGF-A165 binding to laminin LG domain / laminin peptide; set-up: species or system human; details: 10 µg/mL laminin peptide coated (legend; method 1 μg/mL); 1 μg/mL GF; vs BSA-coated wells; n = 4
Experimental: as §1

[7] = system: PDGF-BB; experiment: ELISA: PDGF-BB binding to laminin LG domain / laminin peptide; set-up: species or system human; details: 10 µg/mL laminin peptide coated (legend; method 1 μg/mL); 1 μg/mL GF; vs BSA-coated wells; n = 4
Experimental: as §3

[8] = system: FGF-2; experiment: ELISA: FGF-2 binding to laminin LG domain / laminin peptide; set-up: species or system human; details: 10 µg/mL laminin peptide coated (legend; method 1 μg/mL); 1 μg/mL GF; vs BSA-coated wells; n = 4
Experimental: as §3

[9] = system: PlGF-2; experiment: ELISA: PlGF-2 binding to laminin LG domain / laminin peptide; set-up: species or system human; details: 10 µg/mL laminin peptide coated (legend; method 1 μg/mL); 1 μg/mL GF; vs BSA-coated wells; n = 4
Experimental: as §3

[10] = system: human umbilical vein endothelial cells (HUVEC); experiment: Cell adhesion assay, HUVEC; assay type: cell-based; set-up: key to Cell adhesion HUVEC: ++ indicates high affinities; + indicates medium/low affinities; details: for Cell adhesion HUVEC: summary table; for HUVEC attachment on peptide-coated surfaces: without EDTA, 1 μg/mL peptide coated, 3000 cells/well, 30 min, 37 °C, 100 ng/mL VEGF-A165, 1% FBS, CyQUANT, n = 10
Experimental: as §2, with “Cell adhesion assays were performed using human lung fibroblasts (Lonza) in FGM-2 medium (Lonza) or human umbilical vein endothelial cells (HUVEC; Lonza) in EGM-2 medium (Lonza) supplemented with 1% fetal bovine serum (FBS) and 100 µg/mL VEGF-A165, with or without 5 mM EDTA (Sigma-Aldrich).” left out

[11] = molecular target: PDGF-BB; experiment: SPR: laminin-521 against PDGF-BB; assay type: binding, human; details: laminin-521 immobilized (~2000 RU) on C1 chip, GF flown over, Langmuir fit
Experimental: (§4) SPR measurements were made with a Biacore 3000 SPR system (GE Healthcare). Laminin-521 or laminin LAMA3_2928–3150 was immobilized via amine coupling on a C1 chip (GE Healthcare) for ~2000 or ~1000 resonance units (RU), respectively, according to the manufacturer’s instructions. VEGF-A165, PDGF-BB, or PlGF-2 was flown at increasing concentrations in the running buffer (0.01 M HEPES, pH 7.4, 0.15 M NaCl, and 0.005% v/v surfactant P20) at 20 μL/min. The sensor chip was regenerated with 50 mM NaOH for every cycle. Specific bindings of GFs to laminin were calculated by comparison to a non-functionalized channel used as a reference. Experimental results were fitted with Langmuir binding kinetics using BIAevaluation software (GE Healthcare).

[12] = molecular target: PlGF-2; experiment: SPR: laminin-521 against PlGF-2; assay type: binding, human; details: laminin-521 immobilized (~2000 RU) on C1 chip, GF flown over, Langmuir fit
Experimental: as §4

Substance: ARKASRRSRQPARH [LAMA5_3312–3325, chemically synthesized human laminin LAMA5 linker peptide, 14 aa, subdomain of LAMA5_3300–3330]
- binding to heparin (ELISA) [1]: did not bind to heparin
- binding to syndecans 1–4 (ELISA) [2]: weak binding
- Interaction with Syndecan [2]: +
- binding to the tested GFs (ELISA) [3]: did not show particular binding to any tested GF

Substance: KNSFMALYLSKGR [LAMA3_3031–3043, chemically synthesized human laminin LAMA3 LG4 peptide, 13 aa]
- binding to heparin (ELISA) [1]: do not show heparin binding
- binding to syndecans 1–4 (ELISA) [2]: weak binding
- Interaction with Syndecan [2]: +
- Cell adhesion Fibroblast [4]: +
- fibroblast attachment on peptide-coated surfaces [4]: enhancement of fibroblast attachment
- Interaction with GF [5]: +
- binding to VEGF-A165 (ELISA), peptides [6]: bound

Substance: PLFLLHKKGKNLSKPKASQNKKGGKSK [LAMA4_1408–1434, chemically synthesized human laminin LAMA4 linker peptide, 27 aa]
- binding to heparin (ELISA) [1]: bound to heparin
- Interaction with Heparin [1]: ++
- binding to syndecans 1–4 (ELISA) [2]: significant binding
- Interaction with Syndecan [2]: ++
- binding to PDGF-BB (ELISA), peptides [7]: bound
- binding to FGF-2 (ELISA), peptides [8]: bound
- binding to PlGF-2 (ELISA), peptides [9]: bound
- Interaction with GF [5]: ++
- binding to VEGF-A165 (ELISA), peptides [6]: bound

Substance: PPFLMLLKGSTRFNKTKTFR [LAMA3_2932–2951, chemically synthesized human laminin LAMA3 LG3–LG4 linker peptide, 20 aa]
- Cell adhesion HUVEC [10]: +
- HUVEC attachment on peptide-coated surfaces [10]: promoted HUVEC attachment
- binding to heparin (ELISA) [1]: bound to heparin
- Interaction with Heparin [1]: ++
- binding to syndecans 1–4 (ELISA) [2]: weak binding
- Interaction with Syndecan [2]: +
- binding to FGF-2 (ELISA), peptides [8]: preferentially bound
- Cell adhesion Fibroblast [4]: +
- fibroblast attachment on peptide-coated surfaces [4]: enhancement of fibroblast attachment
- Interaction with GF [5]: +
- binding to VEGF-A165 (ELISA), peptides [6]: preferentially bound

Substance: RQRSRPGRWHKVSVRWEKNR [LAMA5_3417–3436, chemically synthesized human laminin LAMA5 LG4 peptide, 20 aa]
- binding to heparin (ELISA) [1]: bound to heparin
- Interaction with Heparin [1]: ++
- binding to syndecans 1–4 (ELISA) [2]: significant binding
- Interaction with Syndecan [2]: ++
- binding to PDGF-BB (ELISA), peptides [7]: bound
- binding to FGF-2 (ELISA), peptides [8]: bound
- binding to PlGF-2 (ELISA), peptides [9]: bound
- Cell adhesion Fibroblast [4]: +
- fibroblast attachment on peptide-coated surfaces [4]: enhancement of fibroblast attachment
- Interaction with GF [5]: ++
- binding to VEGF-A165 (ELISA), peptides [6]: bound

Substance: TLFLAHGRLVYMFNVGHKKLKIR [LAMA4_1521–1543, chemically synthesized human laminin LAMA4 LG4 peptide, 23 aa]
- Cell adhesion HUVEC [10]: +
- HUVEC attachment on peptide-coated surfaces [10]: promoted HUVEC attachment
- binding to heparin (ELISA) [1]: bound to heparin
- Interaction with Heparin [1]: ++
- binding to syndecans 1–4 (ELISA) [2]: significant binding
- Interaction with Syndecan [2]: ++
- binding to PDGF-BB (ELISA), peptides [7]: not statistically significant
- Cell adhesion Fibroblast [4]: +
- fibroblast attachment on peptide-coated surfaces [4]: enhancement of fibroblast attachment
- Interaction with GF [5]: +

Substance: TLPDVGLELEVR [LAMA5_3539–3550, chemically synthesized human laminin LAMA5 LG5 peptide, 12 aa]
- binding to heparin (ELISA) [1]: did not show binding to heparin; also recorded: do not show heparin binding
- binding to syndecans 1–4 (ELISA) [2]: did not show binding
- Interaction with GF [5]: +
- binding to the tested GFs (ELISA) [3]: significantly bound to all tested GFs

Substance: TPGLGPRGLQATARKASRRSRQPARHPACML [LAMA5_3300–3330, chemically synthesized human laminin LAMA5 linker peptide, 31 aa]
- binding to heparin (ELISA) [1]: bound to heparin
- Interaction with Heparin [1]: ++
- binding to syndecans 1–4 (ELISA) [2]: significant binding
- Interaction with Syndecan [2]: ++
- binding to PlGF-2 (ELISA), peptides [9]: preferentially bound
- Interaction with GF [5]: +
- binding to VEGF-A165 (ELISA), peptides [6]: preferentially bound

Substance: laminin-521: recombinant human full-length laminin isoform (BioLamina)
- Kd [11]: 24.2 nM
- Kd [12]: 12.9 nM
